Experimental data from PMC7732531 (Frontiers in Pharmacology, 2020).

Assays:
in vitro = in vitro ADME; details: human, microsomes
[1] = Prediction of therapeutic human plasma concentration from Kp,uu; details: C b,u,human set to 4.9 pg/ml, rat K p,uu, human unbound fraction
Text: K p,uu in the current investigation is critical to link the PD of in vitro and in vivo results (see the result part). What is more important is that K p,uu is often preserved across species ([Di et al., 2013]). Human K p,uu can be estimated using that of rat ( Kp,uu,human≈Kp,uu,rat ). Thus, unbound drug concentration in human brain can be calculated by using the rat K p,uu, rat times the human unbound plasma concentration [ Cb,u,human≈Kp,uu,rat ×Cp,u,human ]. At the current stage, if C b,u,human (4.9 pg/ml) was set as the in vitro TPSO-binding activity concentration for the onset efficacy, therapeutic human plasma concentration would be around 27.2 ng/ml according to the calculation.

[2] = human, microsomes, 0 h, 1 μM, pH 7.4
[3] = Pharmacokinetics in rats with ABT pretreatment (intestinal and hepatic availability); details: rat, plasma; for concentration at 0.033 h / concentration at 0.083 h / concentration at 8 h / concentration at 12 h / concentration at 24 h / concentration at 0.25 h / concentration at 0.5 h / concentration at 1 h / concentration at 2 h / concentration at 4 h / concentration at 6 h: Plasma concentration; for concentration at 0.033 h / concentration at 0.083 h / concentration at 8 h / concentration at 12 h / concentration at 24 h / concentration at 0.25 h / concentration at 0.5 h / concentration at 1 h / concentration at 2 h / concentration at 4 h / concentration at 6 h / AUC(0-inf) / MRT last: rats; for AUC(0-t) / AUC(0-inf) / MRT last / Vd / clearance / half-life: iv; for MRT last: MRT(0–t)
[4] = 0.1 mg/kg, p.o. ABT, i.v. YL-IPA08 (0.1 mg/kg)
[5] = 0.1 mg/kg, with ABT 100 mg/kg p.o., 15 h before dosing
[6] = 0.5 mg/kg, i.v. ABT, i.v. YL-IPA08 (0.5 mg/kg)
[7] = 0.5 mg/kg, with ABT 50 mg/kg i.v., 1 h before dosing

**Q.** Which results are given for `CCN(Cc1ccccn1)C(=O)Cc1c(-c2ccc(Cl)c(Cl)c2)nc2cc(C)ccn12` [YL-IPA08]?
**A.** fraction unbound at 4 h, 1 µM (in vitro): 0.447; predicted therapeutic human plasma concentration [1]: ~27.2 ng/mL; percent of remaining [2]: 100.00%; concentration at 0.033 h ([3]; intravenous, 0.1 mg/kg, p.o. 100 mg/kg ABT, i.v. 0.1 mg/kg YL-IPA08, 0.033 h): 465 ± 68.7 ng/mL; concentration at 0.083 h ([3]; intravenous, 0.1 mg/kg, p.o. 100 mg/kg ABT, i.v. 0.1 mg/kg YL-IPA08, 0.083 h): 398 ± 51.3 ng/mL; concentration at 8 h ([3]; intravenous, 0.1 mg/kg, p.o. 100 mg/kg ABT, i.v. 0.1 mg/kg YL-IPA08, 8 h): 8.97 ± 2.63 ng/mL; concentration at 12 h ([3]; intravenous, 0.1 mg/kg, p.o. 100 mg/kg ABT, i.v. 0.1 mg/kg YL-IPA08, 12 h): 4.58 ± 1.17 ng/mL; concentration at 24 h ([3]; intravenous, 0.1 mg/kg, p.o. 100 mg/kg ABT, i.v. 0.1 mg/kg YL-IPA08, 24 h): 0.65 ± 0.29 ng/mL; concentration at 0.033 h ([3]; intravenous, 0.5 mg/kg, i.v. 50 mg/kg ABT, i.v. 0.5 mg/kg YL-IPA08, 0.033 h): 398 ± 77.8 ng/mL; concentration at 0.083 h ([3]; intravenous, 0.5 mg/kg, i.v. 50 mg/kg ABT, i.v. 0.5 mg/kg YL-IPA08, 0.083 h): 285 ± 28.2 ng/mL; concentration at 12 h ([3]; intravenous, 0.5 mg/kg, i.v. 50 mg/kg ABT, i.v. 0.5 mg/kg YL-IPA08, 12 h): 6.73 ± 2.47 ng/mL; concentration at 24 h ([3]; intravenous, 0.5 mg/kg, i.v. 50 mg/kg ABT, i.v. 0.5 mg/kg YL-IPA08, 24 h): 2.01 ± 0.93 ng/mL; concentration at 0.25 h ([3]; intravenous, i.v. 50 mg/kg ABT, i.v. 0.5 mg/kg YL-IPA08, 0.25 h): 208 ± 29.4 ng/mL; concentration at 0.5 h ([3]; intravenous, i.v. 50 mg/kg ABT, i.v. 0.5 mg/kg YL-IPA08, 0.5 h): 156 ± 21.5 ng/mL; concentration at 1 h ([3]; intravenous, i.v. 50 mg/kg ABT, i.v. 0.5 mg/kg YL-IPA08, 1 h): 113 ± 14.7 ng/mL; concentration at 2 h ([3]; intravenous, i.v. 50 mg/kg ABT, i.v. 0.5 mg/kg YL-IPA08, 2 h): 54.8 ± 11.8 ng/mL; concentration at 4 h ([3]; intravenous, i.v. 50 mg/kg ABT, i.v. 0.5 mg/kg YL-IPA08, 4 h): 17.6 ± 5.36 ng/mL; concentration at 6 h ([3]; intravenous, i.v. 50 mg/kg ABT, i.v. 0.5 mg/kg YL-IPA08, 6 h): 10.8 ± 3.07 ng/mL; concentration at 8 h ([3]; intravenous, i.v. 50 mg/kg ABT, i.v. 0.5 mg/kg YL-IPA08, 8 h): 8.91 ± 3.06 ng/mL; concentration at 0.25 h ([3]; intravenous, p.o. 100 mg/kg ABT, i.v. 0.1 mg/kg YL-IPA08, 0.25 h): 266 ± 55.2 ng/mL; concentration at 0.5 h ([3]; intravenous, p.o. 100 mg/kg ABT, i.v. 0.1 mg/kg YL-IPA08, 0.5 h): 245 ± 30.4 ng/mL; concentration at 1 h ([3]; intravenous, p.o. 100 mg/kg ABT, i.v. 0.1 mg/kg YL-IPA08, 1 h): 192 ± 16.5 ng/mL; concentration at 2 h ([3]; intravenous, p.o. 100 mg/kg ABT, i.v. 0.1 mg/kg YL-IPA08, 2 h): 114 ± 13.7 ng/mL; concentration at 4 h ([3]; intravenous, p.o. 100 mg/kg ABT, i.v. 0.1 mg/kg YL-IPA08, 4 h): 38.7 ± 13.7 ng/mL; concentration at 6 h ([3]; intravenous, p.o. 100 mg/kg ABT, i.v. 0.1 mg/kg YL-IPA08, 6 h): 14.5 ± 3.66 ng/mL; AUC(0-t) ([3]; 0.1 mg/kg): 125 ± 46.9 ng·h/mL; AUC(0-inf) [3, 4]: 126 ± 46.6 ng·h/mL; MRT last [3, 4]: 5.45 ± 0.66 h; Vd [3, 5]: 1.54 ± 0.49 L/kg; clearance [3, 5]: 15 ± 4.78 mL/min/kg; half-life [3, 5]: 1.19 ± 0.12 h; AUC(0-t) ([3]; 0.5 mg/kg): 472 ± 64.3 ng·h/mL; AUC(0-inf) [3, 6]: 476 ± 65.8 ng·h/mL; MRT last [3, 6]: 3.82 ± 0.32 h; Vd [3, 7]: 2.24 ± 0.28 L/kg; clearance [3, 7]: 17.8 ± 2.74 mL/min/kg; half-life [3, 7]: 1.46 ± 0.14 h; concentration at 0.083 h ([3]; oral, 1 mg/kg, i.v. 50 mg/kg ABT, p.o. 1mg/kg YL-IPA08, 0.083 h): 9.32 ± 7.18 ng/mL; concentration at 8 h ([3]; oral, 1 mg/kg, i.v. 50 mg/kg ABT, p.o. 1mg/kg YL-IPA08, 8 h): 4.51 ± 2.58 ng/mL; concentration at 12 h ([3]; oral, 1 mg/kg, i.v. 50 mg/kg ABT, p.o. 1mg/kg YL-IPA08, 12 h): 3.98 ± 4.24 ng/mL; concentration at 24 h ([3]; oral, 1 mg/kg, i.v. 50 mg/kg ABT, p.o. 1mg/kg YL-IPA08, 24 h): 1.28 ± 0.53 ng/mL; concentration at 0.083 h ([3]; oral, 1 mg/kg, p.o. 100 mg/kg ABT, p.o. 1 mg/kg YL-IPA08, 0.083 h): 546 ± 637 ng/mL; concentration at 8 h ([3]; oral, 1 mg/kg, p.o. 100 mg/kg ABT, p.o. 1 mg/kg YL-IPA08, 8 h): 34.2 ± 19.6 ng/mL; concentration at 12 h ([3]; oral, 1 mg/kg, p.o. 100 mg/kg ABT, p.o. 1 mg/kg YL-IPA08, 12 h): 17.4 ± 8.5 ng/mL; concentration at 24 h ([3]; oral, 1 mg/kg, p.o. 100 mg/kg ABT, p.o. 1 mg/kg YL-IPA08, 24 h): 1.39 ± 0.98 ng/mL; bioavailability ([3]; oral, 1 mg/kg, with ABT 50 mg/kg i.v., 1 h before dosing): 19.7%
